Reference: US20240327320A1, “NOVEL ROUTES OF CHEMICAL SYNTHESIS OF 20S(OH)D3, 20S,25(OH)2D3, 20S,23S(OH)2D3, AND 20S,23R(OH)2D3 AND THEIR MODIFICATION OF THE IMMUNE ACTIVITY OF PBMCS” (United State Government as represen ted by the Department …, priority 2023, published 2024)
Like-named read-outs stand apart in the source and are kept apart here.

Assays:
[1] = cited from earlier work
[2] = test system: CD4 and CD8 T cells from human peripheral blood; test: T cell activation in PBMC, flow cytometry with TriMAP/FlowSOM; format: cell-based; conditions: 10^-7 M, 24 h, anti-CD3 and anti-CD28, compared to ethanol treated cells
Method: Human peripheral blood mononuclear cells (PBMC) from two healthy individuals were obtained from a pre-existing respository. Their use was approved by the University of Alabama at Birmingham Institutional Review Board (Human Subject Assurance Number FWA00005960) as an exempt protocol #4 (Dr C. Raman, P.I.). […] Informed consent is waived in accord with 45CFR46.116 (d). In 48 well plates, 0.5×10^6 PBMC/well were cultured in RPMI1640 containing, 5% charcoal adsorbed FBS and antibiotics and T cells were activated using […] anti-CD3 (clone 145-2C11) and 1 μg/ml anti-CD28 (clone 37.51) for 24 h (Janjetovic Z, et. al., (2021) Endocrinology 162(1), Chaiprasongsuk A, et. al., (2020) Free Radic Biol Med 155 87-98, Slominski A T, et. al., (2011) Am J Physiol Cell Physiol 300(3) C526-41, McGuire D J, et. al., (2014) Eur J Immunol 44(4) 1137-42, Sestero C M, et. al., (2012) J Immunol 189(6) 2918-30). The culture was treated with 10^-7 M 20S(OH)D3, 20S,25(OH)2D3, 20S,23S(OH)2D3, 20S,23R(OH)2D3 or 1α,25(OH)2D3 (Sigma-Aldrich, St. Louis, MO, USA) dissolved in ethanol and diluted in culture medium at the same time of addition of anti-CD3 and anti-CD28. The vehicle control comprised of 0.1% ethanol. At the end of assay the cells were stained with antibodies to CD4 (clone RPA-T4, BV-421), CD19 (clone HB19, BV-510), CD14 (clone HCD14, Alexa 700), CD137 (clone 4B4-1, BV605), CD8a (clone RPA-T8, FITC), ICOS (clone C398.4A, PE/Dazzle), PD1 (clone NAT105, PE), CD80 (clone 2D10, PerCP/Cy5.5), OX40 (clone ACT35, PE/Cy7), CD69 (clone FN50, APC), HLA-DR (clone L243, APC/Fire 750). All antibodies were from Biolegend except anti-CD8 was from Thermo Fisher. The stained cells were analyzed using a CytoFLEX (Beckman Coulter) flow cytometer.
For unbiased analysis of the multidimensional data, acomputational algorithm-based approaches was utilized (Quintelier K, et. al., (2021) Nature Protocols 16(8) 3775-3801). The flow cytometry standard (FCS) data files from each individual and treatment (two individuals, six treatments including ethanol, a total of 12 data files) were processed through the following workflow—compensation, gating on live cells, gating for single cells and subtraction of CD19+(B cells) and CD14+(monocytes). B cells and monocytes were removed from the analysis because only T cells (CD4+ and CD8+) are activated by anti-CD3 and anti-CD28. After these initial gating steps, a key word was added to each of the 12 FCS files, down sampled to 50,000 events/sample and concatenated. Down sampling ascertains that each sample is equally weighted, and concatenation ascertains that statistical analysis is applied equally. The concatenated files were first subjected to TriMAP analysis, a computational algorithm that clusters populations based on triplet relatedness followed by FlowSOM algorithm-based clustering (Quintelier K, et. al., (2021) Nature Protocols 16(8) 3775-3801). To perform these analyses, plugins within FlowJo (BD, CA, USA) were used.
T cells in peripheral blood from two healthy individuals were activated with anti-CD3 and anti-CD28 in the absence (ethanol) or presence of 10^−7 M of each of the vitamin D3 secosteroids for 24 h. The cells were stained for lineage markers (CD4, CD8, CD19, CD14) and a panel of activation induced markers (CD69, ICOS, OX40, CD137, PD1, HLADR) and expression data were collected using a flow cytometer. The gating strategy was live, single cell followed by CD4 and CD8 T cell populations. […]

Molecule	calcemic activity / toxicity ([1]; literature, at the same doses)	CD4 T cells of population 4 (down modulated CD4, increased CD69 and ICOS) [2]	calcemic activity / toxicity ([1]; in vivo)
25(OH)D3 [reference compound]	highly toxic		
C=C1/C(=C\C=C2/CCC[C@]3(C)[C@@H]([C@H](C)CCCC(C)(C)O)CC[C@@H]23)C[C@@H](O)C[C@@H]1O [1α,25(OH)2D3, reference compound]		fewer cells	highly toxic
C=C1CC[C@H](O)C/C1=C/C=C1\CCC[C@@]2(C)[C@H]1CC[C@@H]2[C@@](C)(O)CC(O)CC(C)C (stereo partly shown) [20S,23(OH)2D3, 20,23-dihydroxyvitamin D3]		no effect on this population	
